Experimental data from patent US20220330549A1, “USE OF N-BENZYLBENZAMIDE-BASED COMPOUND AS HERBICIDE” (Northwest A&F University, priority 2020, published 2022).

Tests used:
Format in all cases: in vivo
Amaranthus retroflexus [1] = assay: Herbicidal activity test for indoor pre-emergence soil treatment; design: key: 1-9 levels; higher = more weed remaining vs blank control; conditions: 150 g a.i./ha, visual inspection 21 days after treatment
How it was run: (§1)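 Pre-emergence soil spray per NY/T 1155.3-2006: weed seeds sown in moistened neutral sandy loam (organic content ≤2%), covered with 0.5–2.0 cm soil, then sprayed 24 h later with a water-diluted 10% emulsifiable concentrate at 150 g(a.i.)/ha. Visual rating after 21 days on a 1–9 scale.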

Digitaria sanguinalis [2] = assay: as above; design: key: 1-9 levels; higher = more weed remaining vs blank control; conditions: 150 g a.i./ha, visual inspection 21 days after treatment
How it was run: as §1

Amaranthus retroflexus [3] = assay: Herbicidal activity test for indoor post-emergence spraying on stems and leaves; design: key: grade level by weed remaining vs blank control, e.g. 5 = 10.1-15%; conditions: 150 g a.i./ha, visual inspection 21 days after treatment
How it was run: (§2)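 Following national standard NY/T 1155.4-2006, seedlings raised in a greenhouse receive stem-and-leaf spraying after emergence; 21 days on, surviving weed is compared by eye with the blank control area and assigned a graded level (e.g., level 6 = 15.1–25%).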

Digitaria sanguinalis [4] = assay: as above; design: key: grade level by weed remaining vs blank control, e.g. 5 = 10.1-15%; conditions: 150 g a.i./ha, visual inspection 21 days after treatment
How it was run: as §2

Piemarker [5] = assay: as above; design: key: grade level by weed remaining vs blank control, e.g. 5 = 10.1-15%; conditions: 150 g a.i./ha, visual inspection 21 days after treatment
How it was run: as §2

green bristlegrass [6] = assay: as above; design: key: grade level by weed remaining vs blank control, e.g. 5 = 10.1-15%; conditions: 150 g a.i./ha, visual inspection 21 days after treatment
How it was run: as §2

Barnyard grass [7] = assay: as above; design: key: grade level by weed remaining vs blank control, e.g. 5 = 10.1-15%; conditions: 150 g a.i./ha, visual inspection 21 days after treatment
How it was run: as §2

Humulus scandens [8] = assay: as above; design: key: grade level by weed remaining vs blank control, e.g. 5 = 10.1-15%; conditions: 150 g a.i./ha, visual inspection 21 days after treatment
How it was run: as §2

Acalypha australis = assay: Field test for weed control in a corn field; conditions: 150 g a.i./ha, after treatment
How it was run: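 Herbicidal activity against weeds was assessed in corn plots by the GB/T 17980.42-2000 method. Corn at the 2–5 leaf stage received water sprays of 10% emulsifiable concentrates at 150 g(a.i.)/ha, four repeats per treatment over 20 m^2. A 25% mesotrione oil dispersion was the reference. Damage symptoms and severity were rated on levels 1-9 relative to weeds in the blank control area.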

Amaranthus retroflexus [9] = assay: Field test for weed control in a corn field; conditions: 150 g a.i./ha, 30 days after treatment
How it was run: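 Post-emergence control of Amaranthus retroflexus was assessed in corn plots using the GB/T 17980.42-2000 method. Emulsifiable concentrates (10%) in water were applied by spraying at the 2- to 5-leaf crop stage on 20 m^2 plots, four replicates each, alongside a mesotrione 25% oil dispersion reference. Herbicidal activity was scored on 1-9 levels by weed amount relative to blank control areas.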

Convolvulus arvensis = assay: Field test for weed control in a corn field; conditions: 150 g a.i./ha, after treatment
How it was run: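 Post-emergence herbicidal activity on Convolvulus arvensis was scored in a corn field on a 1-9 scale, based on symptoms and damage severity. Each level corresponds to the weed remaining as a percentage of the blank control area. Sprays of 10% emulsifiable concentrate at 150 g(a.i.)/ha went on at the corn 2–5 leaf stage, with four replicates of 20 m^2 per treatment.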

Digitaria sanguinalis [10] = assay: Field test for weed control in a corn field; conditions: 150 g a.i./ha, after treatment
How it was run: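 Field trial in a corn field following GB/T 17980.42-2000. Test compounds were formulated as 10% emulsifiable concentrates, diluted in water and sprayed post-emergence at 150 g(a.i.)/ha when corn had 2 to 5 leaves, with 4 replicates on 20 m^2 plots. Control of Digitaria sanguinalis was scored on a 1-9 scale based on weed damage relative to the untreated blank area.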

Solanum nigrum = assay: Field test for weed control in a corn field; conditions: 150 g a.i./ha, 30 days after treatment
How it was run: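 In a corn field trial based on GB/T 17980.42-2000, 10% emulsifiable concentrates diluted in water were sprayed at 150 g(a.i.)/ha at the 2 to 5 leaf stage of corn. Each treatment used 20 m^2 plots and was repeated 4 times, with 25% mesotrione oil dispersion as the reference agent. Solanum nigrum damage was scored on a 1-9 scale against blank control plots.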

nutgrass flatsedge = assay: Field test for weed control in a corn field; conditions: 150 g a.i./ha, after treatment
How it was run: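 Herbicidal effect on nutgrass flatsedge was measured in a field planted with corn, using the GB/T 17980.42-2000 method. Emulsifiable concentrates (10%) in water were sprayed at 150 g(a.i.)/ha during the 2-leaf to 5-leaf corn stage, on 20 m^2 plots repeated 4 times. 25% mesotrione oil dispersion was the control agent. Activity was scored from 1 to 9 by weed remaining relative to blank control plots.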

green bristlegrass [11] = assay: Field test for weed control in a corn field; conditions: 150 g a.i./ha, after treatment
How it was run: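 Herbicidal activity against green bristlegrass was assessed in corn field plots of 20 m^2 per GB/T 17980.42-2000. Test agents, formulated as 10% emulsifiable concentrates, were applied in water at 150 g(a.i.)/ha at the corn 2 leaves to 5 leaves stage, repeated 4 times. A 25% mesotrione oil dispersion served as the control agent, and weed damage was rated on levels 1-9.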

Chenopodium album = assay: Field test for weed control in a corn field; conditions: 150 g a.i./ha, after treatment
How it was run: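 Field weed-control testing in corn, run per GB/T 17980.42-2000, scored Chenopodium album on a 1-9 level scale, where each level matches a percentage range of weed remaining relative to the blank control area. Sprays of 10% emulsifiable concentrates in water delivered 150 g(a.i.)/ha at the corn 2-leaf to 5-leaf stage on 20 m^2 plots, four replicates each. Mesotrione 25% oil dispersion served as reference.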

goosegrass = assay: Field test for weed control in a corn field; conditions: 150 g a.i./ha, after treatment
How it was run: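 In this field trial in corn, run per GB/T 17980.42-2000, test agents prepared as 10% emulsifiable concentrates were applied in water as sprays at 150 g(a.i.)/ha at the 2- to 5-leaf corn stage. Each treatment covered 20 m^2 and was repeated 4 times. Goosegrass control was scored 1-9 relative to weed remaining in blank control areas.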

Portulaca oleracea = assay: Field test for weed control in a corn field; conditions: 150 g a.i./ha, after treatment
How it was run: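 Post-emergence weed control was evaluated in a corn field by the GB/T 17980.42-2000 method. Emulsifiable concentrates (10%) in water were applied as sprays at 150 g(a.i.)/ha at the 2-5 leaf corn stage, in four replicate 20 m^2 plots. A 25% mesotrione oil dispersion served as control agent. Effects were graded 1-9 relative to weed remaining in blank control areas.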

Barnyard grass [12] = assay: Field test for weed control in a corn field; conditions: 150 g a.i./ha, 30 days after treatment
How it was run: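 Herbicidal activity against barnyard grass was assessed in corn field plots of 20 m^2, with four replicates per treatment. Compounds were applied as water-diluted 10% emulsifiable concentrates at 150 g(a.i.)/ha at the 2-5 leaf corn stage, with 25% mesotrione oil dispersion as the reference agent. Damage was scored on a 1-9 scale against untreated blank plots.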

Piemarker [13] = assay: Herbicidal activity test for indoor pre-emergence soil treatment; design: key: level 1-9; higher = more weed remaining vs blank control; conditions: 150 g a.i./ha, visual inspection 21 days after treatment
How it was run: as §1

green bristlegrass [14] = assay: as above; design: key: level 1-9; higher = more weed remaining vs blank control; conditions: 150 g a.i./ha, visual inspection 21 days after treatment
How it was run: as §1

Barnyard grass [15] = assay: as above; design: key: level 1-9; higher = more weed remaining vs blank control; conditions: 150 g a.i./ha, visual inspection 21 days after treatment
How it was run: as §1

Broadleaf weed = assay: Post-emergence herbicidal activity test in a paddy field; design: key: level scale; higher level = more weed left vs blank control; conditions: 150 g a.i./ha (penoxsulam control 250 g(a.i.)/h)
How it was run: (§3)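 Efficacy was visually estimated 15 and 30 days after spraying, grading weed coverage relative to an untreated neighbouring plot (level 2 = 0 to 2.5%, level 9 = 67.6 to 100%). Treatments were 150 g(a.i.)/ha from 10% emulsifiable concentrates applied at the 4-5 leaf rice stage, four repeats of 50 m^2 each.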

Cyperaceae = assay: as above; design: key: level scale; higher level = more weed left vs blank control; conditions: 150 g a.i./ha (penoxsulam control 250 g(a.i.)/h)
How it was run: as §3

Gramineae = assay: as above; design: key: level scale; higher level = more weed left vs blank control; conditions: 150 g a.i./ha (penoxsulam control 250 g(a.i.)/h)
How it was run: as §3

Humulus scandens [16] = assay: Herbicidal activity test for indoor pre-emergence soil treatment; conditions: 150 g a.i./ha, visual inspection 21 days after treatment
How it was run: as §1

COc1ccc(OC)c(C(=O)NCc2cccc(C)c2)c1 [Compound A35]
Herbicidal Activity Amaranthus retroflexus (Amaranthus retroflexus [1]): 1
Herbicidal Activity Digitaria sanguinalis (Digitaria sanguinalis [2]): 2 (equivalent to 0 to 2.5% of the weed in the blank control area)
Herbicidal Activity Amaranthus retroflexus (Amaranthus retroflexus [3]): 1
Herbicidal Activity Digitaria sanguinalis (Digitaria sanguinalis [4]): 1
Herbicidal Activity Piemarker (Piemarker [5]): 1
Herbicidal Activity Green bristlegrass (green bristlegrass [6]): 1
Herbicidal Activity Barnyard grass (Barnyard grass [7]): 1
Herbicidal Activity Humulus scandens (Humulus scandens [8]): 1
Post-emergence weed control effect, Acalypha australis (Acalypha australis): 2 (equivalent to 0 to 2.5% of the weed in the blank control area)
Post-emergence weed control effect, Amaranthus retroflexus (Amaranthus retroflexus [9]): 1
Post-emergence weed control effect, Convolvulus arvensis (Convolvulus arvensis): 2 (equivalent to 0 to 2.5% of the weed in the blank control area)
Post-emergence weed control effect, Digitaria sanguinalis (Digitaria sanguinalis [10]): 2 (equivalent to 0 to 2.5% of the weed in the blank control area)
Post-emergence weed control effect, Solanum nigrum (Solanum nigrum): 2 (equivalent to 0 to 2.5% of the weed in the blank control area)
Post-emergence weed control effect, Nutgrass flatsedge (nutgrass flatsedge): 2 (equivalent to 0 to 2.5% of the weed in the blank control area)
Post-emergence weed control effect, Green bristlegrass (green bristlegrass [11]): 2 (equivalent to 0 to 2.5% of the weed in the blank control area)
Post-emergence weed control effect, Chenopodium album (Chenopodium album): 1
Post-emergence weed control effect, Goose grass (goosegrass): 2 (equivalent to 0 to 2.5% of the weed in the blank control area)
Post-emergence weed control effect, Portulaca oleracea (Portulaca oleracea): 1
Post-emergence weed control effect, Barnyard grass (Barnyard grass [12]): 1
Herbicidal Activity Piemarker (Piemarker [13]): 1
Herbicidal Activity Green bristlegrass (green bristlegrass [14]): 1
Herbicidal Activity Barnyard grass (Barnyard grass [15]): 1
Herbicidal activity 15 days after treatment Broadleaf weed (Broadleaf weed; 15 days after treatment): 1
Herbicidal activity 30 days after treatment Broadleaf weed (Broadleaf weed; 30 days after treatment): 2 (equivalent to 0 to 2.5% of the weed in the blank control area)
Herbicidal activity 15 days after treatment Cyperaceae (Cyperaceae; 15 days after treatment): 1
Herbicidal activity 30 days after treatment Cyperaceae (Cyperaceae; 30 days after treatment): 2 (equivalent to 0 to 2.5% of the weed in the blank control area)
Herbicidal activity 15 days after treatment Gramineae (Gramineae; 15 days after treatment): 2 (equivalent to 0 to 2.5% of the weed in the blank control area)
Herbicidal activity 30 days after treatment Gramineae (Gramineae; 30 days after treatment): 1
Herbicidal Activity Humulus scandens (Humulus scandens [16]): 2 (equivalent to 0 to 2.5% of the weed in the blank control area)
